Patent EP4755886A1 (Chengdu Chipscreen Pharmaceutical Ltd., priority 2023, dated 2025)

Experiments:
[1] = tested on: MTAP^-/- HCT-116 cells; assay: Cell proliferation (MTS), MTAP-/- HCT-116; type: cell-based, human; details: for Selectivity: HCT116 WT IC50 relative to HCT116 MTAP-/- IC50; for IC50: Homo sapiens, 240 h, MTAP-/- HCT-116, 10 days with compound, MTS reading, read-out: IC50 HCT116 MTAP-/-
Description: The colon cancer cell strain HCT-116 (purchased from Nanjing Cobioer) was co-transfected with the gene editing tool CRISPR/Cas9 and sgRNA, and the MTAP^-/- HCT-116 cell strain with biallelic inactivation of MTAP was obtained by assays such as Western Blotting and Sanger sequencing. The MTAP^-/- HCT-116 cell strain was used for compound selectivity screening and evaluation based on the synergistic mechanism of MTAP deletion and PRMT5, including a symmetric dimethylarginine (SDMA) level test, a cell proliferation test, and the like.
On day 0, MTAP^-/- HCT-116 cells or wild-type HCT-116 cells were added to a 96-well cell culture plate (Corning, 3599) at 100 cells/well, and the plate was incubated in an incubator at 37 °C with 5% CO2. The compound was diluted in a 3-fold gradient with DMSO (Sigma, D5879) (initial concentration: 20 µM, 3-fold dilution, 8 concentration points in total). On day 1, the compound was diluted to multiple concentration points, and the cells were treated separately and incubated in the incubator at 37 °C with 5% CO2 for another 10 days. On Day 11, 20 µL of MTS (CellTiter 96® AQueous One Solution Cell Proliferation Assay) (Promega, G3581) was added to each well. […] In the formula, Y represents the inhibition rate, X represents the logarithm of the compound concentration, Top represents the maximum response (the inhibition rate at the maximum compound concentration), Bottom represents the baseline response (the inhibition rate where the compound concentration was 0), Hill Slope represents the slope of the IC50 curve, and IC50 represents the half maximal inhibitory concentration.

[2] = tested on: wild-type HCT-116 cells; assay: Cell proliferation (MTS), wild-type HCT-116; type: cell-based; details: Homo sapiens, 240 h; wild-type HCT-116, 10 days with compound, MTS reading; read-out: IC50 HCT116 WT
Description: MTAP^-/- HCT-116 and wild-type HCT-116 cell strains were cultured in complete medium McCoy's 5A (Gibco, 16600082)/10% FBS (Gibco, 10099141C)/1% p/s (Gibco, 15140122) to evaluate the enhanced inhibitory effect of the compounds against the proliferation selectivity of MTAP^-/- HCT-116 cells. On day 0, MTAP^-/- HCT-116 cells or wild-type HCT-116 cells were added to a 96-well cell culture plate (Corning, 3599) at 100 cells/well, and the plate was incubated in an incubator at 37 °C with 5% CO2. The compound was diluted in a 3-fold gradient with DMSO (Sigma, D5879) (initial concentration: 20 µM, 3-fold dilution, 8 concentration points in total). On day 1, the compound was diluted to multiple concentration points, and the cells were treated separately and incubated in the incubator at 37 °C with 5% CO2 for another 10 days. On Day 11, 20 µL of MTS (CellTiter 96® AQueous One Solution Cell Proliferation Assay) (Promega, G3581) was added to each well. […] In the formula, Y represents the inhibition rate, X represents the logarithm of the compound concentration, Top represents the maximum response (the inhibition rate at the maximum compound concentration), Bottom represents the baseline response (the inhibition rate where the compound concentration was 0), Hill Slope represents the slope of the IC50 curve, and IC50 represents the half maximal inhibitory concentration. Table 1. IC50 (µM)

With `CN(C(=O)c1ccc2nc(N)c3c(c2c1)COC3)C1COc2cc(C#Cc3cnn(C)c3)ccc21` (racemic) [Compound 3, 4-amino-N-methyl-N-(6-((1-methyl-1H-pyrazol-4-yl)ethynyl)-2,3-dihydrobenzofuran-3-yl)-1,3-dihydrofuran[3,4-c]quinoline-8-carboxamide] the Selectivity [1] was 160, the IC50 [1] was 27 nM and the IC50 [2] was 4310 nM.
With `CN(C(=O)c1ccc2nc(N)c3cnn(C)c3c2c1)C1COc2cc(C#Cc3cnn(C)c3)ccc21` (stereo not drawn) [Compound 1, 4-amino-N,1-dimethyl-N-(6-((1-methyl-1H-pyrazol-4-yl)ethynyl)-2,3-dihydrobenzofuran-3-yl)-1H-pyrazolo[4,3-c]quinoline-8-carboxamide] the Selectivity [1] was 140, the IC50 [1] was 12.9 nM and the IC50 [2] was 1800 nM.
`Cn1cc(C#Cc2ccc3c(c2)OCC3N(C(=O)c2ccc3nc(N)c4cnn(C)c4c3c2)C2CC2)cn1` (stereo not drawn) [Compound 2, 4-amino-N-cyclopropyl-1-methyl-N-{6-[(1-methylpyrazol-4-yl)ethynyl]-2,3-dihydro-1-benzofuran-3-yl}pyrazolo[4,3-c]quinoline-8-carboxamide] showed a Selectivity [1] of 74, an IC50 [1] of 13.9 nM and an IC50 [2] of 1030 nM.
Compound `CN(C(=O)c1cc2c(cc1F)nc(N)c1cnn(C)c12)C1COc2cc(C#Cc3cnn(C)c3)ccc21` (stereo not drawn) [Compound 5, 4-amino-7-fluoro-N,1-dimethyl-N-(6-((1-methyl-1H-pyrazol-4-yl)ethynyl)-2,3-dihydrobenzofuran-3-yl)-1H-pyrazolo[4,3-c]quinoline-8-carboxamide] has a Selectivity [1] of 97, an IC50 [1] of 6 nM and an IC50 [2] of 584 nM.
In the case of `CN1CC=C(C#Cc2ccc3c(c2)OCC3N(C)C(=O)c2ccc3nc(N)c4cnn(C)c4c3c2)CC1` (stereo not drawn) [Compound 6, 4-amino-N,1-dimethyl-N-(6-((1-methyl-1,2,3,6-tetrahydropyridin-4-yl)ethynyl)-2,3-dihydrobenzofuran-3-yl)-1H-pyrazolo[4,3-c]quinoline-8-carboxamide], the Selectivity [1] is reported as 257, the IC50 [1] is reported as 10.8 nM and the IC50 [2] is reported as 2780 nM.
In the case of `CCN(C(=O)c1ccc2nc(N)c3cnn(C)c3c2c1)C1COc2cc(C#Cc3cnn(C)c3)ccc21` (stereo not drawn) [Compound 7, 4-amino-N-ethyl-1-methyl-N-(6-((1-methyl-1H-pyrazol-4-yl)ethynyl)-2,3-dihydrobenzofuran-3-yl)-1H-pyrazolo[4,3-c]quinoline-8-carboxamide], the Selectivity [1] is reported as 110, the IC50 [1] is reported as 5.4 nM and the IC50 [2] is reported as 593 nM.
`CN(C(=O)c1cc2c(cc1Cl)nc(N)c1cnn(C)c12)C1COc2cc(C#Cc3cnn(C4CC4)c3)ccc21` (stereo not drawn) [Compound 8, 4-amino-7-chloro-N-(6-((1-cyclopropyl-1H-pyrazol-4-yl)ethynyl)-2,3-dihydrobenzofuran-3-yl)-N,1-dimethyl-1H-pyrazolo[4,3-c]quinoline-8-carboxamide] showed a Selectivity [1] of 47, an IC50 [1] of 3 nM and an IC50 [2] of 141 nM.
With `CC(C)n1cc(C#Cc2ccc3c(c2)OCC3N(C)C(=O)c2cc3c(cc2Cl)nc(N)c2cnn(C)c23)cn1` (stereo not drawn) [Compound 14, 4-amino-7-chloro-N-(6-((1-isopropyl-1H-pyrazol-4-yl)ethynyl)-2,3-dihydrobenzof uran-3-yl)-N,1-dimethyl-1H-pyrazolo[4,3-c]quinoline-8-carboxamide] the IC50 [1] was 9 nM.
For `CCn1cc(C#Cc2ccc3c(c2)OCC3N(C)C(=O)c2cc3c(cc2Cl)nc(N)c2cnn(C)c23)cn1` (stereo not drawn) [Compound 15, 4-amino-7-chloro-N-(6-((1-ethyl-1H-pyrazol-4-yl)ethynyl)-2,3-dihydrobenzofuran-3-yl)-N,1-dimethyl-1H-pyrazolo[4,3-c]quinoline-8-carboxamide], the IC50 [1] was 4.8 nM.
For `Cc1nn(C)cc1C#Cc1ccc2c(c1)OCC2N(C)C(=O)c1cc2c(cc1Cl)nc(N)c1cnn(C)c12` (stereo not drawn) [Compound 26, 4-amino-7-chloro-N-(6-((1,3-dimethyl-1H-pyrazol-4-yl)ethynyl)-2,3-dihydrobenzofuran-3-yl)-N,1-dimethyl-1H-pyrazolo[4,3-c]quinoline-8-carboxamide], the IC50 [1] was 2.8 nM.
`Cc1nn(C)cc1C#Cc1ccc2c(c1)OC[C@H]2N(C)C(=O)c1cc2c(cc1Cl)nc(N)c1cnn(C)c12` [Compound 26A, (S)-4-amino-7-chloro-N-(6-((1,3-dimethyl-1H-pyrazol-4-yl)ethynyl)-2,3-dihydrobenzofuran-3-yl)-N,1-dimethyl-1H-pyrazolo[4,3-c]quinoline-8-carboxamide] gave an IC50 [1] of 0.9 nM.
For `CCN(C(=O)c1cc2c(cc1Cl)nc(N)c1cnn(C)c12)C1COc2cc(C#Cc3cnn(C)c3)ccc21` (stereo not drawn) [Compound 28, 4-amino-7-chloro-N-ethyl-1-methyl-N-(6-((1-methyl-1H-pyrazol-4-yl)ethynyl)-2,3-dihydrobenzofuran-3-yl)-1H-pyrazolo[4,3-c]quinoline-8-carboxamide], the IC50 [1] was 2.3 nM.
`CN(C(=O)c1cc2c3c(c(N)nc2cc1F)COC3)[C@@H]1COc2cc(C#Cc3cnn(C)c3)ccc21` [Compound 39A, (S)-4-amino-7-fluoro-N-methyl-N-(6-((1-methyl-1H-pyrazol-4-yl)ethynyl)-2,3-dihydrobenzofuran-3-yl)-1,3-dihydrofuro[3,4-c]quinoline-8-carboxamide] showed an IC50 [1] of 11 nM.
Work on `CN1CCn2c(C#Cc3ccc4c(c3)OC[C@H]4N(C)C(=O)c3cc4c(cc3Cl)nc(N)c3cnn(C)c34)cnc2C1` [Compound 51A, (S)-4-amino-7-chloro-N,1-dimethyl-N-(6-((7-methyl-5,6,7,8-tetrahydroimidazo[1,2-a]pyrazin-3-yl)ethynyl)-2,3-dihydrobenzofuran-3-yl)-1H-pyrazolo[4,3-c]quinoline-8-carboxamide] yielded an IC50 [1] of 1 nM.
`CN(C(=O)c1cc2c(cc1F)nc(N)c1cnn(C)c12)[C@@H]1COc2cc(C#Cc3cccnc3F)ccc21` [Compound 54A, (S)-4-amino-7-fluoro-N-(6-((2-fluoropyridin-3-yl)ethynyl)-2,3-dihydrobenzofuran-3-yl)-N,1-dimethyl-1H-pyrazolo[4,3-c]quinoline-8-carboxamide] gave an IC50 [1] of 5.5 nM.
`Cc1ncccc1C#Cc1ccc2c(c1)OC[C@H]2N(C)C(=O)c1cc2c(cc1Cl)nc(N)c1cnn(C)c12` [Compound 64A, (S)-4-amino-7-chloro-N,1-dimethyl-N-(6-((2-methylpyridin-3-yl)ethynyl)-2,3-dihydrobenzofuran-3-yl)-1H-pyrazolo[4,3-c]quinoline-8-carboxamide] showed an IC50 [1] of 3 nM.
For `CN(C(=O)c1cc2c(cc1F)nc(N)c1cnn(C)c12)C1COCc2cc(C#Cc3cnn(C)c3)ccc21` (stereo not drawn) [Compound 72, 4-amino-7-fluoro-N,1-dimethyl-N-(7-((1-methyl-1H-pyrazol-4-yl)ethynyl)isochroman-4-yl)-1H-pyrazolo[4,3-c]quinoline-8-carboxamide], the IC50 [1] was 6 nM.
`CN(C(=O)c1cc2c3c(c(N)nc2cc1Cl)COC3)[C@@H]1COc2cc(C#Cc3cnn(C(F)F)c3)ccc21` [Compound 73A, (S)-4-amino-7-chloro-N-(6-((1-(difluoromethyl)-1H-pyrazol-4-yl)ethynyl)-2,3-dihydrobenzofuran-3-yl)-N-methyl-1,3-dihydrofuro[3,4-c]quinoline-8-carboxamide] was tested, and the IC50 [1] was 11 nM.
In the case of `CN(C(=O)c1cc2c(cc1F)nc(N)c1cnn(C)c12)[C@@H]1COc2cc(C#Cc3ccc(C4CC4)nc3)ccc21` [Compound 77A, (S)-4-amino-N-(6-((6-cyclopropylpyridin-3-yl)ethynyl)-2,3-dihyrobenzofuran-3-yl)-7-fluoro-N,1-dimethyl-1H-pyrazolo[4,3-c]quinoline-8-carboxamide], the IC50 [1] is reported as 11 nM.
